Data taken from ChEMBL document CHEMBL3758091, “Identification of N-(6-mercaptohexyl)-3-(4-pyridyl)-1H-pyrazole-5-carboxamide and its disulfide prodrug as potent histone deacetylase inhibitors with in vitro and in vivo anti-tumor efficacy” (Eur J Med Chem, 2016).

Experiments:
A549 = assay: cells; format: functional; conditions: Homo sapiens, A549, 96 h
Description: Growth inhibition of human A549 cells after 96 hrs by MTT assay

[1] = Cytotoxicity against HEK293 cells assessed as growth inhibition after 96 hrs by MTT assay; conditions: human
Histone deacetylase 1 [2] = biological target: T1, Histone deacetylase 1 (Homo sapiens, UniProt Q13547); assay: Inhibition of HDAC1 in human HCT116 cells assessed as increase in acetylated histone H3 level after 24 hrs by Western blot analysis; format: cell-based; conditions: HCT-116
[3] = Antitumor activity against human HCT116 cells xenografted in athymic nude mouse assessed as tumor growth inhibition at 40 mg/kg, ip qd administered for 14 days measured every other day during compound dosing; format: functional; conditions: HCT-116, ip, 336 h, read-out: TGI
MCF7 = assay: cells; format: functional; conditions: Homo sapiens, MCF7, 96 h
Description: Growth inhibition of human MCF7 cells after 96 hrs by MTT assay

cells [4] = format: functional; conditions: Homo sapiens, HCT-116, 96 h
Description: Growth inhibition of human HCT116 cells after 96 hrs by MTT assay

cells [5] = format: functional; conditions: Homo sapiens, PC-3, 96 h
Description: Growth inhibition of human PC3 cells after 96 hrs by MTT assay

HT-29 = assay: Growth inhibition of human HT-29 cells after 96 hrs by MTT assay; format: functional
cells [6] = format: functional; conditions: Homo sapiens, ASPC1, 96 h
Description: Growth inhibition of human Aspc-1 cells after 96 hrs by MTT assay

[7] = biological target: T2, Protein deacetylase HDAC6 (Homo sapiens) (UniProt Q9UBN7); assay: Inhibition of HDAC6 in human HCT116 cells assessed as increase in acetylated tubulin level after 24 hrs by Western blot analysis; format: cell-based; conditions: HCT-116
T2 sequence (whole entry): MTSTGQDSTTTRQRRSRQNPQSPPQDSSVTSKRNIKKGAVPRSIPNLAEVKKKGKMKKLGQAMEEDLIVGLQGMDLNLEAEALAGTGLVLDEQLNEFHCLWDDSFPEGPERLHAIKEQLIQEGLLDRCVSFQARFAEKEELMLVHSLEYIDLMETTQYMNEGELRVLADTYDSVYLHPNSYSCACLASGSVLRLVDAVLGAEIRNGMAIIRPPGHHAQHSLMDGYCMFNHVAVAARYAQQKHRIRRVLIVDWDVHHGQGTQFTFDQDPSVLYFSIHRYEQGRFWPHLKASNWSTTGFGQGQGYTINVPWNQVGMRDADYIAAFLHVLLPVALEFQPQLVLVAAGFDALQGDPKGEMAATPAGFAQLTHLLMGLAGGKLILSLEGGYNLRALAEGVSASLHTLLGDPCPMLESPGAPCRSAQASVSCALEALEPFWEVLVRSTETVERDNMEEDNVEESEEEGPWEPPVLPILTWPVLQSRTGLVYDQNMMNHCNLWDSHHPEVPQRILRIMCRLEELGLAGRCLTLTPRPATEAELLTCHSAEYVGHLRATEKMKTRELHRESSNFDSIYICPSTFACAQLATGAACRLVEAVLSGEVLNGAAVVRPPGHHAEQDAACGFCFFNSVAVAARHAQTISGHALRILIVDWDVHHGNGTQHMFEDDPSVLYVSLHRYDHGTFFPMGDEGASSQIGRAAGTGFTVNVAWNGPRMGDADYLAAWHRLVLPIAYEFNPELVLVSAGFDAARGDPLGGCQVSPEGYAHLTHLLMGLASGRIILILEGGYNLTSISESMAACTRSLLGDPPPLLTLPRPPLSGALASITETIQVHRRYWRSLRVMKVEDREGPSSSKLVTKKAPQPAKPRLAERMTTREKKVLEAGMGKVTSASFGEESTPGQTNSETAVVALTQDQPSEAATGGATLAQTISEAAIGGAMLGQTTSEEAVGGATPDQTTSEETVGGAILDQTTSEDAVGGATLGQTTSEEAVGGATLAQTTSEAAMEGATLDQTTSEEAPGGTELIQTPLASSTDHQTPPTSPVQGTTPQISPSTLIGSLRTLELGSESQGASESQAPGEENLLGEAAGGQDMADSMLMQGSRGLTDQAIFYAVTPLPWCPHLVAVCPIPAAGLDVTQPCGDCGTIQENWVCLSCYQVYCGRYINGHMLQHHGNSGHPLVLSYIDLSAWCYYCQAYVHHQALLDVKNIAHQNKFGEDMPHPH

MDA-MB-231 = assay: cells; format: functional; conditions: Homo sapiens, MDA-MB-231, 96 h
Description: Growth inhibition of human MDA-MB-231 cells after 96 hrs by MTT assay

Mus musculus [8] = assay: Toxicity in athymic nude mouse xenografted with human HCT116 cells assessed as reduction in body weight at 40 mg/kg, ip qd administered for 14 days measured every other day during compound dosing; format: organism-based, HCT-116; conditions: in vivo, 336 h
Mus musculus [9] = assay: Toxicity in athymic nude mouse xenografted with human HCT116 cells assessed as mortality at 40 mg/kg, ip qd administered for 14 days measured every other day during compound dosing; format: organism-based, HCT-116; conditions: in vivo, 336 h
Histone deacetylase 3 = Histone deacetylase 3 (Homo sapiens, UniProt O15379); assay: Inhibition of recombinant human HDAC3 using Boc-Lys(Ac)-AMC as substrate preincubated for 15 mins followed by substrate addition measured after 60 mins by fluorescence-based assay
Histone deacetylase 8 = biological target: T3, Histone deacetylase 8 (Homo sapiens, UniProt Q9BY41); assay: Inhibition of recombinant human HDAC8 using Boc-Lys(TFA)-AMC as substrate preincubated for 15 mins followed by substrate addition measured after 60 mins by fluorescence-based assay
T3 sequence (Q9BY41 whole entry): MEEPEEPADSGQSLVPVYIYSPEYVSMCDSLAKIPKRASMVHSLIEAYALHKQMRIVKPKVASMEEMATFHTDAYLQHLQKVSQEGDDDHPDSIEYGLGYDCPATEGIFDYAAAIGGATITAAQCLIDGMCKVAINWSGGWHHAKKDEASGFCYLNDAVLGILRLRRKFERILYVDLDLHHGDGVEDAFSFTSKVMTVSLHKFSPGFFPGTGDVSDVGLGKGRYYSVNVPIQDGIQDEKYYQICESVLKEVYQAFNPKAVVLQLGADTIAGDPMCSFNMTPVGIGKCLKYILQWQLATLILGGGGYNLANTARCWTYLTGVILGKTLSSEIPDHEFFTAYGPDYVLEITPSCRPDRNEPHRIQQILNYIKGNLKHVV

Histone deacetylase 11 = biological target: T4, Histone deacetylase 11 (Homo sapiens, UniProt Q96DB2); assay: Inhibition of recombinant human HDAC11 using Boc-Lys(TFA)-AMC as substrate preincubated for 15 mins followed by substrate addition measured after 60 mins by fluorescence-based assay
T4 sequence (Q96DB2 whole entry): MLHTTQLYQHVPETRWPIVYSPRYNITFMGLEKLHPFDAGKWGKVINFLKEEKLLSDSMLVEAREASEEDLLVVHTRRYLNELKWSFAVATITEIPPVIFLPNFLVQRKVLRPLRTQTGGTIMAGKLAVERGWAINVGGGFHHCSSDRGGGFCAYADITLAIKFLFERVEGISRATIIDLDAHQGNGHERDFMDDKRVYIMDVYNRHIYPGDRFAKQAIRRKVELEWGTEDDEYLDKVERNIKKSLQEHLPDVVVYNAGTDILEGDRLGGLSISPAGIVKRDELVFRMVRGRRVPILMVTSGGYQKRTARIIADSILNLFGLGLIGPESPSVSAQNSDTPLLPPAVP

Histone deacetylase = assay: Inhibition of HDAC in human HeLa cell nuclear extract using Boc-Lys(Ac)-AMC as substrate preincubated for 15 mins followed by substrate addition measured after 60 mins by fluorescence-based assay
Histone deacetylase 4 = Histone deacetylase 4 (Homo sapiens, UniProt P56524); assay: Inhibition of recombinant human HDAC4 using Boc-Lys(TFA)-AMC as substrate preincubated for 15 mins followed by substrate addition measured after 60 mins by fluorescence-based assay
Histone deacetylase 2 = Histone deacetylase 2 (Homo sapiens, UniProt Q92769); assay: Inhibition of recombinant human HDAC2 using Boc-Lys(Ac)-AMC as substrate preincubated for 15 mins followed by substrate addition measured after 60 mins by fluorescence-based assay
Histone deacetylase 1 [10] = biological target: T1, Histone deacetylase 1; assay: Inhibition of recombinant human HDAC1 using Boc-Lys(Ac)-AMC as substrate preincubated for 15 mins followed by substrate addition measured after 60 mins by fluorescence-based assay
[11] = biological target: T5, Protein deacetylase HDAC6 (Homo sapiens, UniProt Q9UBN7); assay: Inhibition of recombinant human HDAC6 using Boc-Lys(Ac)-AMC as substrate preincubated for 15 mins followed by substrate addition measured after 60 mins by fluorescence-based assay
T5 sequence (Q9UBN7 whole entry): T2 sequence (whole entry)

HCT-116 = assay: Antitumor activity against human HCT116 cells xenografted in ip dosed athymic nude mouse assessed as tumor growth inhibition qd administered for 14 days measured every other day during compound dosing; format: functional, organism-based
[12] = Antitumor activity against human HCT116 cells xenografted in athymic nude mouse assessed as tumor growth inhibition at 80 mg/kg, ip qd administered for 14 days measured every other day during compound dosing; format: functional; conditions: HCT-116, ip, 336 h, read-out: TGI
Mus musculus [13] = assay: Toxicity in athymic nude mouse xenografted with human HCT116 cells assessed as mortality at 40 to 80 mg/kg, ip qd administered for 14 days measured every other day during compound dosing; format: organism-based, HCT-116; conditions: in vivo, 336 h
Mus musculus [14] = assay: Toxicity in athymic nude mouse xenografted with human HCT116 cells assessed as reduction in body weight at 40 to 80 mg/kg, ip qd administered for 14 days measured every other day during compound dosing; format: organism-based, HCT-116; conditions: in vivo, 336 h

T1 sequence (Q13547 whole entry): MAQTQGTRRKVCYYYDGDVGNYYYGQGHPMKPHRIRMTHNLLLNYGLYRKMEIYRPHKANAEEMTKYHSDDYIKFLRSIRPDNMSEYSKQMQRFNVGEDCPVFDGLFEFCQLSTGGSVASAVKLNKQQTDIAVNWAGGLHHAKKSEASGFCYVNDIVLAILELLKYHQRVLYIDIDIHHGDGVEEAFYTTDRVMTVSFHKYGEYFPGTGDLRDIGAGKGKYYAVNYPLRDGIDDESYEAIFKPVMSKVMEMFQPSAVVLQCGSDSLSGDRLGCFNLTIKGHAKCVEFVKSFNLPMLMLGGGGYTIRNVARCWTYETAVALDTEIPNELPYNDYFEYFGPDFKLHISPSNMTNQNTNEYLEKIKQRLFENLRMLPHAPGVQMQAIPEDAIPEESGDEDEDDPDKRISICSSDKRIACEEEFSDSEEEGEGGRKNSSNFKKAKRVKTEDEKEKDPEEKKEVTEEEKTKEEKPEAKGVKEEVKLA
Sequence of Histone deacetylase 3 (O15379 whole entry): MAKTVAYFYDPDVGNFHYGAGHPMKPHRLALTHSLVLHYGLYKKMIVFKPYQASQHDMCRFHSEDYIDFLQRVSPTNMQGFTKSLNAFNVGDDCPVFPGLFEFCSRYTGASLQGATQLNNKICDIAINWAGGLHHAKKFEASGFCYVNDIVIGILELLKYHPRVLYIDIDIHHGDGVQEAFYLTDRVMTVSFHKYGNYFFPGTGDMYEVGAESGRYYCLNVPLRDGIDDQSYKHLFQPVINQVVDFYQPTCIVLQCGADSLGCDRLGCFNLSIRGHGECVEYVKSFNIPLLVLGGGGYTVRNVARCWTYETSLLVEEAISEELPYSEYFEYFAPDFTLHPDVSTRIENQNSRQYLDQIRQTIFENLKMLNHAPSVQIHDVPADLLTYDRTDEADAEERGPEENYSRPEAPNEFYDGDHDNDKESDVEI
Sequence of Histone deacetylase 2 (Q92769 whole entry): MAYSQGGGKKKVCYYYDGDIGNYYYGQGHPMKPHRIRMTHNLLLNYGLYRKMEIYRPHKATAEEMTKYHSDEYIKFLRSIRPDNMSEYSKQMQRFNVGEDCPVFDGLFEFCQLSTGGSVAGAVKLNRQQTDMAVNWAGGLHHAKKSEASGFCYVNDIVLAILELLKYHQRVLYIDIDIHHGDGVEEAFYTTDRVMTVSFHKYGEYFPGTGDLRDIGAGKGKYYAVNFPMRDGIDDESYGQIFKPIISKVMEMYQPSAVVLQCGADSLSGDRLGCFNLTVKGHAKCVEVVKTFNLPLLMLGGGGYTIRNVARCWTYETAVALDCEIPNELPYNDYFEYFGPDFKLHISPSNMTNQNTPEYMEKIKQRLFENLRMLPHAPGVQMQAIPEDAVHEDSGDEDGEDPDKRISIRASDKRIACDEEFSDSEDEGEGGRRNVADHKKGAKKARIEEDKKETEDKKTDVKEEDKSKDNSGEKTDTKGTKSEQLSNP
Sequence of Histone deacetylase 4 (P56524 whole entry): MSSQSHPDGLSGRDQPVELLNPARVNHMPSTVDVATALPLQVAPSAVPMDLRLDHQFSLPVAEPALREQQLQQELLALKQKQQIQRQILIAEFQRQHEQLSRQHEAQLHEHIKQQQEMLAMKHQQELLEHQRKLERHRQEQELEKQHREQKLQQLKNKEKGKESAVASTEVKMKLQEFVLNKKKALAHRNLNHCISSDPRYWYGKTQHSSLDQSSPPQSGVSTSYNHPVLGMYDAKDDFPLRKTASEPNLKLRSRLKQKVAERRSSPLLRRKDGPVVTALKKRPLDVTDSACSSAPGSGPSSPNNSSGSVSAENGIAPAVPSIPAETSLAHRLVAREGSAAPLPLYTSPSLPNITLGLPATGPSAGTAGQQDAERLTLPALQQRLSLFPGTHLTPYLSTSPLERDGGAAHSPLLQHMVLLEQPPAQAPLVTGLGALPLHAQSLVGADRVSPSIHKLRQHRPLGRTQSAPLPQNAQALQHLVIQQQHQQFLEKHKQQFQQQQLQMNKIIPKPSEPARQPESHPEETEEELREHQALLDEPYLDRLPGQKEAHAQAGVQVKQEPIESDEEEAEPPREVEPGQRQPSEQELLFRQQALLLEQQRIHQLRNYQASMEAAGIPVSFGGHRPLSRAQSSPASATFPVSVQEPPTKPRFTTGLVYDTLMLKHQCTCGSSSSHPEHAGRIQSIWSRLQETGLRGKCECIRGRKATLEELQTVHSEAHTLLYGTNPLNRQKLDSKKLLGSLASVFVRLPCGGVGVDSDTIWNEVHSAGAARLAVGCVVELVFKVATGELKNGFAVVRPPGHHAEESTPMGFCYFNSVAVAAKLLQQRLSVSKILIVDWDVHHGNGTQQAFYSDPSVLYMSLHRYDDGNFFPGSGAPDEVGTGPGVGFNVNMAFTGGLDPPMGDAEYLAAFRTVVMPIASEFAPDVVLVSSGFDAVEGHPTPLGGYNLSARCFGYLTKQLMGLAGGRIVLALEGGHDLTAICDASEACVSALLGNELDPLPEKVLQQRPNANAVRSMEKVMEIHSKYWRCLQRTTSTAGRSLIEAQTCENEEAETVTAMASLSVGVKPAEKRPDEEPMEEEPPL

| SMILES | GI50 (A549) [µM] | GI50 at 96 h [1] [µM] | inhibition (Histone deacetylase 1 [2]) | inhibition in vivo at 40 mg/kg [3] [%] | GI50 (MCF7) [µM] | GI50 (cells [4]) [µM] | GI50 (cells [5]) [µM] | GI50 (HT-29; Homo sapiens, HT-29, 96 h) [µM] | GI50 (cells [6]) [µM] | inhibition [7] | GI50 (MDA-MB-231) [µM] | further results |
| --- | --- | --- | --- | --- | --- | --- | --- | --- | --- | --- | --- | --- |
| O=C(NCCCCCCSSCCCCCCNC(=O)c1cc(-c2cccnc2)n[nH]1)c1cc(-c2cccnc2)n[nH]1 | 5.31 | 13.5 | Dose-dependent effect | 28 | 3.79 | 3.03 | 1.25 | 5.29 | 3.6 | Dose-dependent effect | 10.3 |  |
| O=C(CCCCCCC(=O)Nc1ccccc1)NO [VORINOSTAT] |  |  |  |  |  |  |  |  |  |  |  | Activity (Mus musculus [8]): Non-toxic; Activity (Mus musculus [9]): Non-toxic; GI50 (HT-29): 2.88 µM |
| O=C(NCCCCCCS)c1cc(-c2cccnc2)n[nH]1 | 19.3 | > 50 | Dose-dependent effect |  | 11.5 | 18.1 | 9.4 | 22 | 14.6 | Dose-dependent effect | 42.4 | IC50 (Histone deacetylase 3): 0.029 µM; IC50 (Histone deacetylase 8): > 10 µM; IC50 (Histone deacetylase 11): > 10 µM; IC50 (Histone deacetylase): 0.015 µM; IC50 (Histone deacetylase 4): > 10 µM; IC50 (Histone deacetylase 2): 0.221 µM; IC50 (Histone deacetylase 1 [10]): 0.052 µM; IC50 [11]: 0.026 µM |
| O=C(NCCCCCCSSCCCCCCNC(=O)c1cc(-c2ccncc2)n[nH]1)c1cc(-c2ccncc2)n[nH]1 | 6.07 | 14.8 | Dose-dependent effect | 27 | 7.15 | 8.93 | 4.74 | 6.92 | 25.3 | Dose-dependent effect | 27.3 | inhibition (HCT-116): Dose-dependent effect; inhibition in vivo at 80 mg/kg [12]: 48%; Activity (Mus musculus [13]): Non-toxic; Activity (Mus musculus [14]): Non-toxic |
